Measured values from patent publication US20230158034A1, “CO-TREATMENT WITH CDK4/6 AND CDK2 INHIBITORS TO SUPPRESS TUMOR ADAPTATION TO CDK2 INHIBITORS” (Pfizer Inc., priority 2020, published 2023).

Assays:
[1] = tested on: CDK2 activity (DHB sensor phosphorylation); test: DHB-based CDK2 activity sensor, single-cell time-lapse imaging (C/N ratio); set-up: species or system human
Text: The DHB sensor is localized to the nucleus when it is not phosphorylated. Upon phosphorylation, the nuclear localization signal is masked, the nuclear export signal is unmasked, and the sensor steadily translocates to the cytoplasm in response to increasing CDK2 activity (FIG. 1A). Thus, kinase activity can be quantified by the ratio of the cytoplasmic to nuclear fluorescence intensity (C/N ratio) of the DHB sensor. […] Asynchronously cycling cells were first imaged for approximately 20 hr in the absence of drug to establish the cell-cycle phase of each cell; the movie was then paused to add drug, and then imaging was continued for another 1-2 days. Because the cells were cycling asynchronously, all cell-cycle phases with one drug treatment were sampled. This allowed the present inventors to computationally isolate traces for cells that received drug at any time since the completion of anaphase.
Cells were seeded at least 24 hr prior to imaging in phenol-red-free full-growth medium in glass-bottom 96-well plates (CellVis P96-1.5H-N) that were coated with collagen prior to seeding. The seeding density was chosen such that the cells would remain sub-confluent until the end of the imaging period. Cells were first imaged for 16-20 hr in full-growth media without drug. The movie was then briefly paused and the full-growth media was replaced with full-growth media containing drug at the desired concentration. The plate was then re-inserted into the microscope and aligned to its prior position and imaging was continued for an additional 24-48 hr. Images were acquired every 12 min (for MCF10A or RPE-hTERT) or every 20 min (for MCF7 or OVCAR3) on a Nikon Eclipse Ti or Ti2 microscope with a 10×0.45 NA objective in a humidified, 37° C. chamber at 5% CO2. Exposure times for all movies for all channels were kept under 500 ms per timepoint to minimize phototoxicity. Cell tracking was performed using published MATLAB scripts (Cappell et al., 2016), as described previously (Arora et al., 2017). The tracking code is available for download at https://github.com/scappell/Cell_tracking. Cell counts over time were obtained by counting the number of segmented nuclei in each frame of the movie.
Asynchronously cycling cells that divided and received drug treatments during the imaging period were initially segmented into categories based on the cells' time of anaphase relative to the time of drug addition. These cells were then additionally subcategorized based on their DHB cytoplasmic/nuclear (C/N) ratio after the mitotic event. C/N ratio was calculated by quantifying the ratio of cytoplasmic to nuclear mean DHB fluorescence, with the cytoplasmic component calculated as the mean of the top 50th percentile of a ring of pixels outside of the nuclear mask.
Cells were classified as CDK2^inc if the DHB C/N ratio was above 0.5 units 3 hr after anaphase, otherwise they were classified as CDK2^low. Figure legends indicate whether only CDK2^inc cells or whether all cells are plotted. The median of the single-cell traces in a subcategory was then used to create median trace with 95% confidence interval representative of the particular subcategory. All cell trace analysis was done using custom MATLAB scripts and code is available upon request.

[2] = Half-life of PF3600 in cells; format: in vitro ADME
[3] = tested on: CDK2 T-loop phosphorylation, Cyclin E1, p21; test: Western blots of palbociclib-treated lung tumors; format: in vivo, mouse; details: palbociclib 70 mg/kg QD for 28 days
Protocol: To test the potential compensatory relationship between CDK2 and CDK4/6 in vivo, an established mouse lung tumor model driven by KRAS^G12V and TRP53 mutations was used. Kras^+/LSLG12V, Trp53^L/L mice intra-nasally infected with adenoviral particles encoding Cre recombinase developed lung tumors with a latency of 5 months. Once tumor development was detected by CT scans, animals were treated with either vehicle or palbociclib (70 mg/kg QD) for 28 days and tumor volumes were subsequently measured by CT scans at the end of the treatment period.
For western blots in FIG. 7B, protein extraction was performed in protein lysis buffer (50 mM Tris-HCl pH 7.4, 150 mM NaCl, 0.5% NP-40) supplemented with a cocktail of protease and phosphatase inhibitors (complete Mini, Roche, 11836153001; Phosphatase Inhibitor Cocktail 2 and 3, Sigma, P5726 and P0044). Protein concentrations were measured using Bradford (Bio-Rad) method. […] of protein extracts obtained from tumor tissue were separated on NUPAGE™ 4-12% Bis-Tris Midi gels (Invitrogen), transferred to a nitrocellulose membrane (GE Healthcare) and blotted with primary antibodies. Primary antibodies were detected with goat secondary antibodies directed against mouse or rabbit IgGs (HRP, Dako, and Alexa Fluor 680, Invitrogen) and visualized with ECL Western Blot detection solution (GE Healthcare).

[4] = PF3600, MCF10A, MCF7 and RPE-hTERT cells

Row | half-life [2] [h] | SMILES | DHB sensor phosphorylation behavior ([1]; 25 nM PF3600, MCF7) | DHB sensor phosphorylation behavior ([1]; 100 nM PF3600, MCF7) | cells that initially responded ([1]; PF3600) [%] | rebound of DHB sensor phosphorylation ([1]; PF3600, OVCAR3 cells) | onset of rebound in DHB sensor phosphorylation [1, 4] [h] | time until DHB sensor phosphorylation returned to pre-treatment levels [1, 4] [h] | effect on DHB sensor phosphorylation, cell-cycle progression, or the timing of mitosis ([1]; 1 μM palbociclib added 5 hr or later after anaphase/mitosis, MCF10A) | CDK2 T-loop phosphorylation and Cyclin E1 in tumors (western blot) [3] | p21 in tumors (western blot) [3]
1 | ~30 | C[C@@]1(O)CCC[C@H]1n1c(=O)c(C(F)F)cc2cnc(NC3CCN(S(C)(=O)=O)CC3)nc21 [PF3600, 6-(difluoromethyl)-8-[(1R,2R)-2-hydroxy-2-methylcyclopentyl]-2-{[1-(methylsulfonyl)-piperidin-4-yl]amino}pyrido[2,3-d]pyrimidin-7(8H)-one] | drop-rebound behavior | brief rebound followed by long-lived suppression of DHB phosphorylation | 100 | did not rebound | 1 to 2 | ≤ 5 |  |  | 
2 |  | CC(=O)c1c(C)c2cnc(Nc3ccc(N4CCNCC4)cn3)nc2n(C2CCCC2)c1=O [palbociclib] |  |  |  |  |  |  | no immediate effect | upregulation of CDK2 T-loop phosphorylation and Cyclin E1 | significant downregulation of the CDK inhibitor p21
